Test results as given in patent US10351915B2 (Berg LLC, priority 2009, dated 2019).

How the values were obtained:
SCC cells = test: Real-time PCR Apoptosis Array; format: cell-based
Text: The control cells were untreated cells.
RNA was quantified by measuring Optical Density at 260 nm.

various cell types = test: Minimal CoQ10 concentration and treatment time for induction of early apoptosis (Bcl-2, caspase, annexin V); format: cell-based
Method: CoQ10 treatment of cells was carried out as described in detail below in the Materials and Methods. Induction of apoptosis was assessed in the treated cells by monitoring indicators of early apoptosis (e.g., Bcl-2 expression, caspase activation and by using annexin V assays) as described below. From these studies, the minimal CoQ10 dosage, e.g., concentration of CoQ10 and time of treatment, required to induce apoptosis in the panel of cell lines was determined.
Cells were cultured in T-75 flasks with relevant medium supplemented with 10% Fetal Bovine Serum (FBS), 1% PSA (penicillin, streptomycin, amphotericin B) (Invitrogen and Cellgro) in a 37° C. incubator with 5% CO2 levels until 70-80% confluence was reached. To harvest cells for treatment, flasks were primed with 1 mL Trypsin, aspirated, trypsinized with an additional 3 mL, and incubated at 37° C. for […]. Cells were then neutralized with an equal volμme of media and the subsequent solution was centrifuged at […] for 8 minutes. The supernatant was aspirated and the cells were resuspended with 8.5 ml of media. A mixture of 500 ul of the resuspension and 9.5 ml of […] was read twice by a coulter counter and the appropriate number of cells to be seeded into each dish was determined. Control and concentration ranging from 0-200 μM groups were examined in triplicate. From a 500 μM CoQ-10 stock solution, serial dilutions were performed to achieve desired experimental concentration in appropriate dishes. Dishes were incubated in a 37° C. incubator with 5% CO2 levels for 0-72 hours depending on cell type and experimental protocol.
The volume of sample to load per well was determined using the raw mean concentration of protein obtained from the BCA protein assay. Approximately 30-60 μg of protein were loaded for each treatment time point. Proteins were run in triplicate on 12% Tris-HCl ready gels (Bio-Rad) or hand cast gels in 1× running buffer at 85 and 100 volts. Proteins were then transferred onto nitrocellulose paper for an hour at 100 volts, and blocked for another hour in a 5% milk solution. Membranes were placed in primary antibody (1 uL Ab:1000 uL TBST) (Cell Signaling) overnight at […] The following day, membranes were washed three times for ten minutes each with Tris-Buffered Saline Tween-20 (TBST), and secondary antibody (anti-rabbit; 1 uL Ab: 1000 uL TBST) was applied for an hour at […] Membranes were washed again three times for ten minutes with TBST and chemoluminescence using Pico or Femto substrate was completed (Pierce). Membranes were then developed at time intervals that produced the best visual results. After developing, membranes were kept in TBST at […] until Actin levels could be measured.
Cells were washed twice in PBS10X and resuspended in Binding Buffer (0.1 M HEPES, pH 7.4; 1.4 M NaCl; 25 mM CaCl2). Samples of 100 μl were added to a culture tube with 5 μl of annexin-PE dye or […]. The cells were mixed and incubated without light at room temperature for 15 minutes. After which, 400 μl of 1× Binding Buffer was added to each sample and they were subjected to analysis by flow cytometry.

SDH Subunit B = test: Western blot, Succinate Dehydrogenase B in mitochondrial preparations; format: cell-based; conditions: mitochondrial preparations of cancer cells
Method: The above blots were stripped by incubating for 30 minutes with methanol, followed by two 10 minute washes with TBS-T, then 30 minutes of incubation with Stripping buffer at 50 deg C., and followed by two washes with 100 ml or more of TBS-T for 30′ each. The blots were scanned in laser scanner to check for complete stripping. The blots were activated with methanol for 5 seconds, washed with water for 5 minutes, and TBST for 15 minutes. The blots were blocked for 1 hour with 5% blocking reagent in TBS-T at room temperature and then washed 3 times with TBS-T (1×-15′; 2×5′ each) and probed with the primary antibody for PKM2, SDHB or SDHC in 5% BSA in TBS-T by incubation overnight at 4 deg C. with gentle shaking. The primary antibody for SDHC (ABNOVA H00006391-M02; antimouse) was at 1:500 dilution. The primary antibody for SDHB was from Abcam ab4714-200; antimouse; at 1:1000 dilution. The primary antibody for Pyruvate Kinase M2 (PKM2) was from Novus Biologicals H00005315-D0IP; antirabbit; at 1:500 dilution. After incubation with primary antibodies, the membranes were washed 3 times with TBS-T (1×-15′; 2×5′ each) and probed with the secondary antibody (SDHB & C antimouse; and PKM2 antirabbit; 1:10,000 dilution) for 1 h on the orbital tilting shaker at room temperature. […]

HDFa cells = test: Oxygen consumption rate (OCR), SeaHorse XF analyzer; format: cell-based, human; conditions: normal cells (HDFa)
Text: (SeaHorse Biosciences Inc, North Billerica, Mass.).
In this experiment, the OCR and extracellular acidification rate (ECAR) in normal cells lines were obtained in the presence and absence of CoQ10 to determine baseline values. It was observed that in its native nutrient environment, the basal OCR rates in normal cells lines are different, and are usually a function of the physiological roles of the cells in the body.
FIGS. 37 and 38 below describes the OCR in HDFa and HASMC cells grown in physiologically normal glucose (about 4.6 mM) and high glucose (hyperglycemic) conditions.

skin cancer cells = skin cancer cells vs normal cells; cited from earlier work

COC1=C(OC)C(=O)C(C/C=C(\C)CC/C=C(\C)CC/C=C(\C)CC/C=C(\C)CC/C=C(\C)CC/C=C(\C)CC/C=C(\C)CC/C=C(\C)CC/C=C(\C)CCC=C(C)C)=C(C)C1=O [Q10, Coenzyme Q10]
Regulation (mRNA) (SCC cells; 100 μM Q10, at 6 hours): Down regulated at 6 hours | Regulation (mRNA) (SCC cells; 100 μM Q10, at 24 hours, BAX mRNA): Up regulated at 24 hours. | Regulation (mRNA) (SCC cells; 100 μM Q10, at 24 hours, BNIP3 mRNA): Down regulated at 24 hours. | Indication of Early apoptosis (Bcl-2, annexin V, or caspase activation) (various cell types; BONE: Ewing's sarcoma (NCI)): Extremely | Minimal treatment Time for induction of early apoptosis (various cell types; BONE: Ewing's sarcoma (NCI)): 1 h | Indication of Early apoptosis (Bcl-2, annexin V, or caspase activation) (various cell types; BONE: Osteosarcoma (143b)): Very Strong | Minimal treatment Time for induction of early apoptosis (various cell types; BONE: Osteosarcoma (143b)): 48 h | Indication of Early apoptosis (Bcl-2, annexin V, or caspase activation) (various cell types; BREAST: BT-20): Strong | Minimal treatment Time for induction of early apoptosis (various cell types; BREAST: BT-20): 48 h | Indication of Early apoptosis (Bcl-2, annexin V, or caspase activation) (various cell types; BREAST: MCF-7): Strong | Minimal treatment Time for induction of early apoptosis (various cell types; BREAST: MCF-7): 48 h | Indication of Early apoptosis (Bcl-2, annexin V, or caspase activation) (various cell types; BREAST: MDA MB 468): Strong | Minimal treatment Time for induction of early apoptosis (various cell types; BREAST: MDA MB 468): 48 h | Indication of Early apoptosis (Bcl-2, annexin V, or caspase activation) (various cell types; BREAST: SkBr-3): Very Strong | Minimal treatment Time for induction of early apoptosis (various cell types; BREAST: SkBr-3): 24 h | Indication of Early apoptosis (Bcl-2, annexin V, or caspase activation) (various cell types; BREAST: ZR-75): Slight | Minimal treatment Time for induction of early apoptosis (various cell types; BREAST: ZR-75): 72 h | Indication of Early apoptosis (Bcl-2, annexin V, or caspase activation) (various cell types; Heart: Aortic smooth muscle (HASMC)): None | Indication of Early apoptosis (Bcl-2, annexin V, or caspase activation) (various cell types; LIVER: Hep3B): Very Strong | Minimal treatment Time for induction of early apoptosis (various cell types; LIVER: Hep3B): 24 h | Indication of Early apoptosis (Bcl-2, annexin V, or caspase activation) (various cell types; LIVER: HepG2): Very Strong | Minimal treatment Time for induction of early apoptosis (various cell types; LIVER: HepG2): 24 h | Indication of Early apoptosis (Bcl-2, annexin V, or caspase activation) (various cell types; Mammary fiboblasts: 184A1 and 184B5): None | Indication of Early apoptosis (Bcl-2, annexin V, or caspase activation) (various cell types; Melanoma (Skmel 2)): Very Strong | Minimal treatment Time for induction of early apoptosis (various cell types; Melanoma (Skmel 2)): 24 h | Indication of Early apoptosis (Bcl-2, annexin V, or caspase activation) (various cell types; Melanoma (Skmel 28)): Strong | Minimal treatment Time for induction of early apoptosis (various cell types; Melanoma (Skmel 28)): 24 h | Indication of Early apoptosis (Bcl-2, annexin V, or caspase activation) (various cell types; PANCREAS: PaCa2): Very Strong | Minimal treatment Time for induction of early apoptosis (various cell types; PANCREAS: PaCa2): 24 h | Indication of Early apoptosis (Bcl-2, annexin V, or caspase activation) (various cell types; PROSTATE: PC3): Very Strong | Minimal treatment Time for induction of early apoptosis (various cell types; PROSTATE: PC3): 24 h | Indication of Early apoptosis (Bcl-2, annexin V, or caspase activation) (various cell types; SCC, Squamous cell carcinoma): Very Strong | Minimal treatment Time for induction of early apoptosis (various cell types; SCC, Squamous cell carcinoma): 24 h | Indication of Early apoptosis (Bcl-2, annexin V, or caspase activation) (various cell types; SKIN: Fibroblasts (nFib)): None | Indication of Early apoptosis (Bcl-2, annexin V, or caspase activation) (various cell types; SKIN: Keratinocytes (Heka, Hekn)): None | Indication of Early apoptosis (Bcl-2, annexin V, or caspase activation) (various cell types; SKIN: Melanocytes (Hema, LP)): None | effect on normal cells (various cell types; normal cells, including keratinocytes and dermal fibroblasts): increased proliferation and migration | efficacy of Coenzyme Q10 treatment (induction of apoptosis) (various cell types; oncogenic cell lines): greater in cell types that exhibited increased oncogenicity and/or greater metastatic potential | SDH protein levels (SDH Subunit B): increase SDH protein levels | OCR (HDFa cells): influenced OCR | rate of apoptosis (skin cancer cells): increase the rate of apoptosis in a culture of skin cancer cells but not normal cells
